By LD50 is commonly meant the dose at which mortality reaches 50%. Lower therefore signals greater toxicity. As usually defined, the NOAEL is the highest tested level that showed no adverse finding.

The test system of data set [1] is Rattus norvegicus. The note with it: acute, oral.
Data set [2] has as its system Rattus norvegicus. The conditions noted are these: oral.
[3] abbreviates: subchronic, gavage, M, Sprague-Dawley.
The mark [4] stands for this setting: chronic, duration: 91 days, gavage, M/F, Wistar, Blood Chemistry: Ca increase, TP increase, Glob increase, TG increase, Glu decrease + Absolute Organ Weight: Liver increase, Kidney increase….
[5] abbreviates: short-term, duration: 28 days, gavage, M, Sprague-Dawley, Clinical Observation: Salivation Orange urinelocomotor activity decreaserespiratory rate decrease, Incomplete eye opening Staining around ….

On to `CCC(C)(C)c1ccc(O)c(C(C)(C)CC)c1` [2,4-Di-tert-pentylphenol], for which the LD50 in data set [1] (Sprague-Dawley) came out at 920 mg/kg. The NOAEL in data set [2] (subchronic, gavage, M, Sprague-Dawley, Deaths + Clinical Observation: Salivation/100 Soft feces/100 + Body Weight Changes: Body weight gain decrease + Urinalysis: Volume increase…) came out at 10 mg/kg-day.

Turning to `CCC(C)c1cc(C(C)(C)C)c(O)c(C(C)(C)C)c1` (configuration not stated) [4-(Butan-2-yl)-2,6-di-tert-butylphenol], in data set [1] (Sprague-Dawley), the LC50 worked out at 4800 mg/kg. In addition, the NOEL in data set [2] (short-term, duration: 28 days, gavage, F, Sprague-Dawley, Clinical Observation: Soft feces + Urinalysis: pH decrease + Hematology: PT increase, APTT increase + Blood Chemistry: T-CHO increase, T-BIL…) is less than 15 mg/kg-day; in data set [2] (short-term, duration: 28 days, gavage, M, Sprague-Dawley, Clinical Observation: Soft feces + Urinalysis: pH decrease + Hematology: PT increase, APTT increase + Blood Chemistry: T-CHO increase, T-BIL…), 15 mg/kg-day.

Turning to `CCCCCCCCCCCCCCCCCC(=O)OCCOC(=O)CCCCCCCCCCCCCCCCC` [Octadecanoic acid, 1,2-ethanediyl ester], the LD50 in data set [1] (gavage) was greater than 10000 mg/kg. In data set [2] (setting [3]), this compound gave an NOAEL of 1000 mg/kg-day and an NOEL of 1000 mg/kg-day.

For `O=C([O-])C1=Cc2sc(Cn3ccnc3)cc2CC1.[Na+]` [RS 5186], the NOAEL in data set [2] (subchronic, duration: 90 days, gavage, M/F, CD, Clinical Observation: Salivation Chylous or dark red-brown urine + Absolute Organ Weight: Liver increase + Relative Organ Weight: Liver …) came out at 30 mg/kg-day.

Regarding `C[C@@H](NCCc1ccc(O)cc1)[C@@H](O)c1ccc(O)cc1.Cl` [Ritodrine hydrochloride], the NOEL in data set [2] (subchronic, duration: 35 days, gavage, M/F, Sprague-Dawley, Deaths + Clinical Observation: Locomotor activity decrease, Increased respiration rate Deep respiration Prone, lateral, or supine position …) was found to be 32 mg/kg-day.

In the case of `O=[Se](=O)([O-])[O-].[Na+].[Na+]` [Sodium selenate], the NOEL came to 0.31 mg/kg-day in data set [2] (subchronic, drinking water, F, Fischer 344, Deaths + Body Weight Changes: decrease + Hematology: Hct increase, Hgb increase, RBC increase + Blood Chemistry: BUN increase ALT increase, …) and 0.57 mg/kg-day in data set [2] (subchronic, drinking water, M/F, Fischer 344, Deaths + Body Weight Changes: decrease + Hematology: Hct increase, Hgb increase, RBC increase + Blood Chemistry: BUN increase ALT increase, …).

On to `O=C1CCC(=O)O1` [Succinic anhydride], for which the NOEL in data set [2] (subchronic, duration: 13 weeks, gavage, M/F, Fischer 344, Deaths + Clinical Observation: Lethargy Distended abdomens + Body Weight Changes: decrease + Absolute Organ Weight: Liver increase + …) was 50 mg/kg-day.

`Nc1ccc(S(N)(=O)=O)cc1` [Sulfanilamide]: in data set [2] (short-term, duration: 28 days, gavage, M/F, Sprague-Dawley, Clinical Observation: Salivation + Functional Observational Battery: Auditory response decrease, Disappearance, aerial righting reflex …), the NOEL is 50 mg/kg-day.

For `O=C(O)c1cc(N=Nc2ccc(S(=O)(=O)Nc3ccccn3)cc2)ccc1O` [Sulfasalazine], the NOEL in data set [2] (subchronic, duration: 13 weeks, gavage, M/F, Fischer 344, Body Weight Changes: decrease + Blood Chemistry: TSH increase T3 decrease T4 decrease + Absolute Organ Weight: Right kidney increase + …) was less than 84 mg/kg-day.

Turning to `CCCCCc1cc(O)c2c(c1)OC(C)(C)[C@@H]1CCC(C)=C[C@@H]21` [Tetrahydrocannabinol], the NOEL in data set [2] (subchronic, duration: 13 weeks, gavage, M/F, Fischer 344, Deaths: Administration groups for 13 weeks(1/10 )(2/10 )(6/10 /10 ) + Clinical Observation: Convulsion Aggressive behavior: Dose is unknown …) was less than 5 mg/kg-day.

As to `NNC(N)=S` [Thiosemicarbazide], in data set [2] (subchronic, gavage, M, Sprague-Dawley, Functional Observational Battery: Tonic convulsion Hypersensitive reaction in touch response and tail pinch response + Body Weight Changes: …), the NOEL stood at 0.4 mg/kg-day.

Turning to `c1ccc(P(c2ccccc2)c2ccccc2)cc1` [Triphenylphosphine], in data set [2] (setting [4]), the NOAEL came out at 60 mg/kg-day and the NOEL is 6 mg/kg-day.

For the compound `O=[N+]([O-])C(Br)=Cc1ccccc1` [beta-Bromo-beta-nitrostyrene], in data set [2] (subchronic, gavage, M/F, Fischer 344, Deaths + Body Weight Changes: decrease>150 af>>300 + Hematology: RBC increase, WBC increase, Seg increase, Ret increase + Blood Chemistry: …), the NOEL is less than 37 mg/kg-day.

As to `CC(=O)/C=C/C1=C(C)CCCC1(C)C` [beta-Ionone], in data set [2] (subchronic, duration: 90 days, diet, M/F, Wistar, Urinalysis: Ket increase, Uro increase, Transitional epithelial cell increase, Epithelial cell casts + Blood Chemistry: gamma-GTP increase, …), the NOAEL is 96 mg/kg-day.

With `COc1ccc([N+](=O)[O-])cc1` [p-Nitroanisole], in data set [2] (setting [5]), the NOAEL was determined as 100 mg/kg-day and the NOEL was less than 100 mg/kg-day.

As to `N#Cc1c(Cl)c(Cl)c(C#N)c(Cl)c1Cl` [p-Phthalodinitrile, tetrachloro-], in data set [2] (subchronic, gavage, Sprague-Dawley), the NOEL was determined as 1000 mg/kg-day.

As for `CC(C)(C)S` [t-Butyl mercaptan], the NOEL in data set [2] (subchronic, gavage, M, CD(SD), Clinical Observation: Salivation + Body Weight Changes: decrease + Food Consumption: decrease + Hematology: RBC decrease, HGB decrease, HCT …) is less than 10 mg/kg-day; in data set [2] (subchronic, gavage, M, Sprague-Dawley, Body Weight Changes: decrease200 + Hematology: MCHC decrease, APTT increase, RBC decrease, Hgb decrease, Hct decrease, Plt increase, PT …), less than 10 mg/kg-day.

With `ClC1=C(Cl)[C@]2(Cl)[C@H]3[C@H]([C@H](Cl)C(Cl)[C@@H]3Cl)[C@@]1(Cl)C2(Cl)Cl` (stereo partly drawn) [trans-Nonachlor], in data set [2] (subchronic, diet, M/F, Sprague-Dawley, Blood Chemistry: Pi increase, A/G decrease, Thyroxine increasetake decrease, T4 increase + Absolute Organ Weight: Liver increase + Relative …), the NOEL was less than 0.48 mg/kg-day.

Source of the values: EPA's ToxValDB 9.5.
